Series [1] has as its system indomethacin-induced non-fatal intestinal ulceration. The series can be described thus: Indomethacin-induced (7.5 mg/kg p.o.) non-fatal intestinal ulceration, post-treatment, inflation technique. The class given is in vivo, rat (H-Wistar). As to the method:
(§1) To evaluate the development of intestinal ulcers the so-called inflation technique by Ezer and Szporny (J. Pharm. Pharmacol. 27, 866 (1975)) was employed. By this method the progress of ulceration can be monitored quantitatively. The tensile strength of the intestinal wall expressed in mmHg weakens gradually parallel with the progress of ulceration.
(b) Indomethacin-induced non-fatal ulceration
Non-fasted H-Wistar rats weighing 120 to 150 g each were administered 7.5 mg/kg indomethacin orally, to induce non-fatal intestinal ulceration. 4, 24 and 48 hours, respectively, after the indomethacin treatment the animals were treated with the test material orally. The animals were killed 24 hours after the last treatment and 72 hours after the ulcer-induction performed with indomethacin, respectively. Ulceration was evaluated by the inflation technique.

Series [2] concerns intestinal ulceration induced by indomethacin. Conditions: literature; cited from earlier work.
Series [3] deals with indomethacin-induced intestinal ulceration. The series can be described thus: Indomethacin-induced fatal intestinal ulceration (15 mg/kg p.o.), inflation technique. The class given is in vivo, rat (female H-Wistar). As to the method:
Indomethacin-induced intestinal ulceration
Of the non-steroidal antiinflammatory agents indomethacin has not only a gastric-ulcer inducing side-effect but may also cause serious intestinal ulceration. Depending on the dose, the intestinal ulceration may be fatal, peritonitis due to intestinal perforations kills the animals.
(a) Indomethacin-induced fatal intestinal ulceration
Non-fasted, female H-Winstar rats, weighing 120-150 g each were treated orally with a 15 mg/kg dose of indomethacin (in Tween 80 suspension). […] Under these conditions it requires about 48 to 72 hours to detect intenstinal ulceration.
as §1

For the next series, the system named is formation of ulcers. Conditions: cited from earlier work.
In series [4] the test system is aspirin-induced gastric ulcers. Description: Aspirin-induced stomach ulcer. The class given is in vivo, rat (female H-Wistar). The conditions noted are these: Aspirin (control) 100 mg/kg p.o., n=20. As to the method:
It is known that the non-steroidal antiinflammatory agents induce gastointestinal ulceration to certain extent (Drugs and Peptic Ulcer, Ed. Pfeiffer, CRC Press, New York 1982). To test anti-ulcer compounds the so-called Aspirin-induced ulcer model is widely used. Female H-Wistar rats weighing 120-150 g each were fasted for 24 hours. Water was allowed ad libitum. The stomach ulcer was induced by oral administration of 100 mg/kg Aspirin (in Tween 80 suspension). The test drug was given simultaneously with the administration of Aspirin, orally. The animals were killed by an overdose of ether, 4 hours after treatment. The stomach was excised and cut along the large curvature. The contents were slightly washed and the haemorrhagic lesions in the glandular surface were counted. When evaluating the test results, the number of ulcers per stomach or the ulcer-free animals were determined.

Where [5] appears, read: indomethacin 15 + 25 mg/kg p.o.
The mark [6] stands for this setting: indomethacin 15 + 50 mg/kg p.o.
The mark [7] stands for this setting: indomethacin 15 mg/kg p.o. alone, n=16.

As to `CNC(=C[N+](=O)[O-])NCCSCc1ccc(CN(C)C)o1` [ranitidine], in series [1] (post-treatment 4, 24 and 48 hours after indomethacin 7.5 mg/kg p.o.), the “Non-fatal intestinal ulceration post-treatment, in words” value is “ineffective”.

`CC(C)[N+](C)(CCOC(=O)C1c2ccccc2Oc2ccccc21)C(C)C` [Propanthelin]: the “Indomethacin-induced intestinal ulceration, in words” value in series [2] was “cannot prevent indomethacin-induced intestinal ulceration”.

As for `O=C(O)c1ccccc1O` [Na--salicylate, reference compound], in series [3] (Rattus norvegicus, po), the ED100 amounted to 50 mg/kg. Further, the entries for the “Intestinal wall resistency in % of normal” value in series [3] (setting [5]) and in series [3] (setting [6]) were 57 % of normal and 100 % of normal, respectively. Moreover, the “T.s. of intestinal wall 72 hours after treatment” value in series [3] (setting [5]) is reported as 132 ± 17 mm Hg; in series [3] (setting [6]) it was 231 ± 5 mm Hg.

Take `CN1CCN(CC(=O)N2c3ccccc3C(=O)Nc3cccnc32)CC1` [pirenzepine, 5,11-dihydro-11-[(4-methyl-1-piperazinyl)-acetyl]-6H-pyrido[2,3-b][1,4] benzodiazepine-6-one]: in the series on formation of ulcers (compared to atropine), the “Inhibition of the formation of ulcers, in words” value was “inhibits the formation of ulcers to the same extent as atropine”. Also, in the series on formation of ulcers (in vivo), the “Other anticholinergic effects (e.g. inhibition of peristalsis, accommodation disturbances of eye, inhibition of salivation)” value was “devoid of other anticholenergic effects”.

Consider `COc1ccc2c(c1)c(CC(=O)O)c(C)n2C(=O)c1ccc(Cl)cc1` [Indomethacin, reference compound], for which, in series [1] (indomethacin 7.5 mg/kg p.o. alone, n=32, group B), the “T.s. of intestinal wall 72 hours after indomethacin treatment” value is 185 ± 11 mm Hg. Also, in series [3] (setting [7]), the “Intestinal wall resistency in % of normal” value was 20 % of normal and the “T.s. of intestinal wall 72 hours after treatment” value amounted to 46 ± 12 mm Hg.

With `CC(=O)Oc1ccccc1C(=O)O` [Aspirin, reference compound], in series [4], the Number of ulcers/stomach worked out at 15.7 ± 3.0 and the Ulcer-free animals is 0%.

As for `C[N+]1(C)[C@@H]2CC[C@H]1CC(OC(=O)C1c3ccccc3Oc3ccccc31)C2.[Br-]` (stereo partly drawn) [Gastrixon], in series [2], the “Indomethacin-induced intestinal ulceration, in words” value is given as “cannot prevent indomethacin-induced intestinal ulceration”.
